Assay results: the Deep4Chem optical property database
Blank lines part the entries; values can stand above or below the compound they belong to.

Experiment: solvent given as SMILES

- absorption maximum (in CO): 260 nm
SMILES: COc1ccc(-c2nc(-c3cc([N+](=O)[O-])ccc3O)[nH]c2-c2ccc(OC)cc2)cc1

- absorption maximum (in C1COCCO1): 330 nm
- absorption maximum (in CC#N): 324 nm
- absorption maximum (in CCCCCC): 331 nm
- absorption maximum (in CCCCCCC): 332 nm
- absorption maximum (in CCCO): 328 nm
- absorption maximum (in CCOC(C)=O): 328 nm
- absorption maximum (in CS(C)=O): 329 nm
- absorption maximum (in ClC(Cl)Cl): 332 nm
- absorption maximum (in ClCCl): 330 nm
SMILES: COc1ccc(C#Cc2ccc(C#N)cc2)cc1

- absorption maximum (in CC#N): 330 nm
SMILES: c1ccc(-c2pc3ccccc3s2)cc1 (configuration not stated)

- absorption maximum (in CC#N): 392 nm
SMILES: COc1ccc2cc(/C=C/c3ccc([N+](=O)[O-])cc3)c(=O)oc2c1

- absorption maximum (in CCO): 376 nm
SMILES: O=Cc1ccc(-c2ccc(-c3nc4ccccc4s3)c(O)c2)s1

- absorption maximum (in CC#N): 380 nm
SMILES: COc1ccc(/C=C(\C#N)c2nc(-c3ccc(OC)cc3)cs2)cc1

- absorption maximum (in ClC(Cl)Cl): 650 nm
SMILES: CN1C(=CC2=C([S-])C(=CC3=[N+](C)c4ccccc4C3(C)C)C2=O)C(C)(C)c2ccccc21

The next lines start with the compound.

SMILES: Cc1cc(C)c(C2=C3C=c4c(c5ccc(C(C)(C)C)cc5c5cc(C(C)(C)C)ccc45)=[N+]3[B-](F)(F)n3c2cc2c4ccc(C(C)(C)C)cc4c4cc(C(C)(C)C)ccc4c23)c(C)c1
- absorption maximum (in C1CCCCC1): 693 nm
- absorption maximum (in C1CCOC1): 692 nm
- absorption maximum (in CC#N): 686 nm
- absorption maximum (in Cc1ccccc1): 698 nm
- absorption maximum (in ClCCl): 693 nm

SMILES: COc1cc2c(cc1OC)C1=C[C@H](c3ccccc3)C3(C(C(=O)O[C@@H]4C[C@H]5CC[C@@H]4C5)=C(C(=O)O[C@H]4C[C@@H]5CC[C@H]4C5)N1CC2)c1ccccc1-c1ccccc13
- absorption maximum (in ClCCl): 314 nm

SMILES: CCN1\C(=C/C=C/C=C/C2=[N+](CC)c3ccc4ccccc4c3C2(C)C)C(C)(C)c2c1ccc1ccccc21
- absorption maximum (in C1CCOC1): 684 nm
- absorption maximum (in CC#N): 677 nm
- absorption maximum (in CC(C)=O): 680 nm
- absorption maximum (in CCO): 682 nm
- absorption maximum (in CN(C)C=O): 683 nm
- absorption maximum (in CO): 678 nm
- absorption maximum (in CS(C)=O): 686 nm
- absorption maximum (in ClCCl): 693 nm

SMILES: C/C=C/C=C/C1=NC(=C\c2ccc([O-])cc2)/C(=O)N1C
- absorption maximum (in O): 482 nm

SMILES: CN(C)c1ccc(C#Cc2cc(C#Cc3ccc(C(F)(F)F)cc3)c3ccc4c(C#Cc5ccc(N(C)C)cc5)cc(C#Cc5ccc(C(F)(F)F)cc5)c5ccc2c3c45)cc1
- absorption maximum (in ClCCl): 509 nm

SMILES: CCCCC(CC)Cn1c2cc(C#N)ccc2c2ccc(C#Cc3ccc4ccc5ccc(C#Cc6ccc7c8ccc(C#N)cc8n(CC(CC)CCCC)c7c6)c6ccc3c4c56)cc21 (configuration not stated)
- absorption maximum (in ClCCl): 447 nm

SMILES: COc1ccc(C#Cc2nc(C#Cc3ccc(OC)cc3)c(C#Cc3ccc(OC)cc3)c(C#Cc3ccc(OC)cc3)c2C#Cc2ccc(OC)cc2)cc1
- absorption maximum (in ClCCl): 421 nm

SMILES: CCCC1(CCC)c2cc(-c3ccc(C(C)(C)C)cc3)ccc2-c2ccc(-c3ccc4c(c3)C(CCC)(CCC)c3cc(-c5ccc(C(C)(C)C)cc5)ccc3-4)cc21
- absorption maximum (in C1CCCCC1): 346 nm

SMILES: CCn1c2ccccc2c2cc(C#Cc3cc(C#Cc4ccc5c(c4)c4ccccc4n5CC)nc(OC)n3)ccc21
- absorption maximum (in C1CCOC1): 388 nm
- absorption maximum (in CCOC(C)=O): 384 nm
- absorption maximum (in CN(C)C=O): 392 nm
- absorption maximum (in Cc1ccccc1): 389 nm
- absorption maximum (in ClCCl): 390 nm

SMILES: CCCN1C(=O)C(=CC=CC=C2Oc3ccccc3N2CCCS(=O)(=O)[O-])C(=O)N(CCC)C1=S
- absorption maximum (in C1COCCO1): 565 nm
- absorption maximum (in CC(C)=O): 559 nm
- absorption maximum (in CCCCO): 562 nm
- absorption maximum (in CCCO): 561 nm
- absorption maximum (in CCO): 558 nm
- absorption maximum (in CO): 554 nm
- absorption maximum (in ClC(Cl)Cl): 568 nm
- absorption maximum (in O): 530 nm

SMILES: CN(C)c1ccc(/C=C/C=N/N=C/c2ccc3ccc4cccc5ccc2c3c45)cc1
- absorption maximum (in CC#N): 426 nm
- absorption maximum (in CC(C)(C)O): 420 nm
- absorption maximum (in CC(C)=O): 418 nm
- absorption maximum (in CC(C)O): 432 nm
- absorption maximum (in CCCCO): 433 nm
- absorption maximum (in CO): 434 nm
- absorption maximum (in CS(C)=O): 438 nm
- absorption maximum (in ClC(Cl)Cl): 433 nm
- absorption maximum (in ClCCl): 430 nm
- absorption maximum (in O): 420 nm
